Laboratory results as given in EP4707280A1, “1,4-CINEOLE DERIVATIVE AND INTERMEDIATE THEREOF, HERBICIDE CONTAINING SAID DERIVATIVE AS ACTIVE INGREDIENT, METHOD FOR USING HERBICIDE, AND METHOD FOR PREPARING AGROCHEMICAL COMPOSITION” (HOKKO CHEMICAL INDUSTRY CO., LTD., priority 2023, dated 2024).

What was measured:
Type in all cases: in vivo
[1] = system: Echinochloa crus-galli var. formosensis; test: Test Example 1: herbicidal effect test by soil application in paddy rice; conditions: Echinochloa crus-galli, soil, 336 h; 120 g active ingredient per 10 ares; applied immediately after sowing, flooded pots; 14 days after application; read-out: weed inhibition rate
Summary of the method: (§1)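 Paddy soil in Wagner pots (1/10,000 acre) was fertilized (N:P:K 16:16:16) and puddled, then weed seeds were sown 0–1 cm deep, 30 each. Pots were flooded to ~3 cm and kept in a glass greenhouse. Emulsifiable concentrate diluted in water was dropped on immediately after sowing at 120 g a.i. per 10 ares.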

Scirpus juncoides [2] = test: as above; conditions: Schoenoplectiella juncoides, soil, 336 h; 120 g active ingredient per 10 ares; applied immediately after sowing, flooded pots; 14 days after application; read-out: weed inhibition rate
Summary of the method: as §1

[3] = system: Echinochloa crus-galli var. formosensis; test: Test Example 2: herbicidal effect test by application during growth period of paddy rice; conditions: Echinochloa crus-galli; 120 g per 10 ares; applied seven days after sowing, flooded pots; 14 days after application; read-out: weed inhibition rate
Summary of the method: (§2)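 Steps: puddle fertilized paddy soil; sow 30 seeds of each weed at 0–1 cm; flood to roughly 3 cm and keep in a glasshouse; at day 7 drop in diluted emulsifiable concentrate (120 g a.i. per 10 ares); score inhibition (%) 14 days later, two replicates.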

Monochoria vaginalis [4] = test: as above; conditions: Pontederia vaginalis; 120 g per 10 ares; applied seven days after sowing, flooded pots; 14 days after application; read-out: weed inhibition rate
Summary of the method: as §2

Scirpus juncoides [5] = test: as above; conditions: Schoenoplectiella juncoides; 120 g per 10 ares; applied seven days after sowing, flooded pots; 14 days after application; read-out: weed inhibition rate
Summary of the method: as §2

[6] = system: Echinochloa crus-galli var. formosensis; test: Test Example 6: herbicidal effect test by application during growth period of paddy rice (low dose); conditions: Echinochloa crus-galli; 7.5 g per 10 ares; applied seven days after sowing, flooded pots; 14 days after application; read-out: weed inhibition rate
Summary of the method: (§3)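 Low-dose water application, 7.5 g a.i. per 10 ares, given by dropper into flooded pots (about 3 cm depth) 7 days after sowing of 30 weed seeds each at 0–1 cm. Evaluation of inhibition (%) took place 14 days later, duplicate per rate.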

Monochoria vaginalis [7] = test: as above; conditions: Pontederia vaginalis; 7.5 g per 10 ares; applied seven days after sowing, flooded pots; 14 days after application; read-out: weed inhibition rate
Summary of the method: as §3

Scirpus juncoides [8] = test: as above; conditions: Schoenoplectiella juncoides; 7.5 g per 10 ares; applied seven days after sowing, flooded pots; 14 days after application; read-out: weed inhibition rate
Summary of the method: as §3

Digitaria ciliaris = test: Test Example 7: herbicidal effect test by soil application in upland field (low dose); conditions: Digitaria ciliaris, 7.5 g per 10 ares, sprayed one day after sowing, 14 days after application, read-out: weed inhibition rate
Summary of the method: (§4)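 Upland soil (alluvial loam) pots, seeds mixed into top 1 cm layer → EC formulation diluted with water, sprayed onto soil 1 d post-sowing, 100 L/10 a → 7.5 g a.i./10 a → inhibition (%) scored at 14 d, n=2.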

Echinochloa crus-galli = test: as above; conditions: Echinochloa crus-galli, 7.5 g per 10 ares, sprayed one day after sowing, 14 days after application, read-out: weed inhibition rate
Summary of the method: as §4

Chenopodium album = test: Test Example 3: herbicidal effect test by soil application in upland field; conditions: 120 g per 10 ares, sprayed one day after sowing, 14 days after application, read-out: weed inhibition rate
Summary of the method: (§5)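 Pre-emergence test: seeds mixed into top 1 cm of alluvial loam upland soil in pots; emulsifiable concentrate diluted in water sprayed on soil one day after sowing at 100 L/10 a, 120 g a.i./10 a. Weed inhibition rate (%) scored at 14 days, in duplicate.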

Amaranthus viridis = test: as above; conditions: Amaranthus viridis, 120 g per 10 ares, sprayed one day after sowing, 14 days after application, read-out: weed inhibition rate
Summary of the method: as §5

CC(C)[C@]12C[C@@H](OCc3c(F)cccc3F)[C@](C)(C[C@@H]1Br)O2 [1-21, (1S,2R,4R,5S)-5-bromo-2-[(2,6-difluorophenyl)methoxy]-1-methyl-4-isopropyl-7-oxabicyclo[2.2.1]heptane]
≥ 80%: pest or weed control at 1200 g/ha [1] | pest or weed control at 1200 g/ha (Scirpus juncoides [2]) | inhibition at 1200 g/ha [3] | inhibition at 1200 g/ha (Monochoria vaginalis [4]) | inhibition at 1200 g/ha (Scirpus juncoides [5]) | inhibition at 75 g/ha [6] | inhibition at 75 g/ha (Monochoria vaginalis [7]) | inhibition at 75 g/ha (Scirpus juncoides [8]) | inhibition at 75 g/ha (Digitaria ciliaris) | inhibition at 75 g/ha (Echinochloa crus-galli)

CC(C)[C@]12C[C@@H](OCc3c(F)cccc3Br)[C@](C)(CC1=O)O2 [2-355, (1R,4S,5R)-5-((2-bromo-6-fluorobenzyl)oxy)-1-isopropyl-4-methyl-7-oxabicyclo[2.2.1]heptan-2-one]
≥ 80%: pest or weed control at 1200 g/ha [1] | pest or weed control at 1200 g/ha (Scirpus juncoides [2]) | inhibition at 1200 g/ha [3] | inhibition at 1200 g/ha (Monochoria vaginalis [4]) | inhibition at 1200 g/ha (Scirpus juncoides [5]) | inhibition at 75 g/ha [6] | inhibition at 75 g/ha (Monochoria vaginalis [7]) | inhibition at 75 g/ha (Scirpus juncoides [8]) | inhibition at 75 g/ha (Digitaria ciliaris) | inhibition at 75 g/ha (Echinochloa crus-galli)

CC(C)[C@]12C[C@@H](OCc3ccc(F)cc3)[C@](C)(C[C@@H]1Br)O2 [1-691, (1S,2R,4R,5S)-5-bromo-2-[(4-fluorophenyl)methoxy]-1-methyl-4-isopropyl-7-oxabicyclo[2.2.1]heptane]
≥ 80%: pest or weed control at 1200 g/ha [1] | pest or weed control at 1200 g/ha (Scirpus juncoides [2]) | inhibition at 1200 g/ha [3] | inhibition at 1200 g/ha (Monochoria vaginalis [4]) | inhibition at 1200 g/ha (Scirpus juncoides [5]) | inhibition at 75 g/ha [6] | inhibition at 75 g/ha (Monochoria vaginalis [7]) | inhibition at 75 g/ha (Scirpus juncoides [8]) | inhibition at 75 g/ha (Digitaria ciliaris) | inhibition at 75 g/ha (Echinochloa crus-galli)

CCO[C@H]1C[C@]2(C)O[C@@]1(C(C)C)C[C@H]2OCc1ccccc1F [1-183, (1S,2R,4R,5S)-5-ethoxy-2-[(2-fluorophenyl)methoxy]-1-methyl-4-isopropyl-7-oxabicyclo[2.2.1]heptane]
≥ 80%: pest or weed control at 1200 g/ha [1] | pest or weed control at 1200 g/ha (Scirpus juncoides [2]) | inhibition at 1200 g/ha [3] | inhibition at 1200 g/ha (Monochoria vaginalis [4]) | inhibition at 1200 g/ha (Scirpus juncoides [5]) | inhibition at 75 g/ha [6] | inhibition at 75 g/ha (Monochoria vaginalis [7]) | inhibition at 75 g/ha (Scirpus juncoides [8]) | inhibition at 75 g/ha (Digitaria ciliaris) | inhibition at 75 g/ha (Echinochloa crus-galli)

CC(C)[C@]12C[C@@H](OCc3ccccc3)[C@](C)(C[C@@H]1Br)O2 [1-15, (1S,2R,4R,5S)-5-bromo-1-methyl-2-phenylmethoxy-4-isopropyl-7-oxabicyclo[2.2.1]heptane]
≥ 80%: pest or weed control at 1200 g/ha [1] | pest or weed control at 1200 g/ha (Scirpus juncoides [2]) | inhibition at 1200 g/ha [3] | inhibition at 1200 g/ha (Monochoria vaginalis [4]) | inhibition at 1200 g/ha (Scirpus juncoides [5]) | inhibition at 75 g/ha [6] | inhibition at 75 g/ha (Monochoria vaginalis [7]) | inhibition at 75 g/ha (Scirpus juncoides [8]) | inhibition at 75 g/ha (Digitaria ciliaris) | inhibition at 75 g/ha (Echinochloa crus-galli)

CCC1C[C@]2(C)O[C@@]1(C(C)C)C[C@H]2OCc1ccccc1C (stereo partly drawn) [1-123, (1R,4S,5R)-2-ethyl-1-isopropyl-4-methyl-5-((2-methylbenzyl)oxy)-7-oxabicyclo[2.2.1]heptane]
≥ 80%: pest or weed control at 1200 g/ha [1] | inhibition at 1200 g/ha [3] | inhibition at 1200 g/ha (Chenopodium album) | inhibition at 75 g/ha [6] | inhibition at 75 g/ha (Digitaria ciliaris)

Cc1ccccc1CO[C@@H]1C[C@@]2(C(C)C)C=C[C@]1(C)O2 [3-2, (1R,4S,5R)-4-methyl-5-[(2-methylphenyl)methoxy]-1-isopropyl-7-oxabicyclo[2.2.1]hept-2-ene]
≥ 80%: pest or weed control at 1200 g/ha [1] | pest or weed control at 1200 g/ha (Scirpus juncoides [2]) | inhibition at 1200 g/ha [3] | inhibition at 1200 g/ha (Monochoria vaginalis [4]) | inhibition at 1200 g/ha (Scirpus juncoides [5]) | inhibition at 1200 g/ha (Amaranthus viridis) | inhibition at 75 g/ha [6] | inhibition at 75 g/ha (Monochoria vaginalis [7]) | inhibition at 75 g/ha (Scirpus juncoides [8]) | inhibition at 75 g/ha (Digitaria ciliaris) | inhibition at 75 g/ha (Echinochloa crus-galli)

C=CCO[C@H]1C[C@]2(C)O[C@@]1(C(C)C)C[C@H]2OCc1ccccc1F [1-1602, (1S,2R,4R,5S)-2-[(2-fluorophenyl)methoxy]-1-methyl-4-isopropyl-5-prop-2-enoxy-7-oxabicyclo[2.2.1]heptane]
≥ 80%: pest or weed control at 1200 g/ha [1] | pest or weed control at 1200 g/ha (Scirpus juncoides [2]) | inhibition at 1200 g/ha [3] | inhibition at 1200 g/ha (Monochoria vaginalis [4]) | inhibition at 1200 g/ha (Scirpus juncoides [5]) | inhibition at 75 g/ha [6] | inhibition at 75 g/ha (Monochoria vaginalis [7]) | inhibition at 75 g/ha (Scirpus juncoides [8]) | inhibition at 75 g/ha (Digitaria ciliaris) | inhibition at 75 g/ha (Echinochloa crus-galli)

Cc1cccc(F)c1CO[C@@H]1C[C@]2(C(C)C)O[C@@]1(C)CC2=O [2-353, (1R,4S,5R)-5-((2-fluoro-6-methylbenzyl)oxy)-1-isopropyl-4-methyl-7-oxabicyclo[2.2.1]heptan-2-one]
≥ 80%: pest or weed control at 1200 g/ha [1] | pest or weed control at 1200 g/ha (Scirpus juncoides [2]) | inhibition at 1200 g/ha [3] | inhibition at 1200 g/ha (Monochoria vaginalis [4]) | inhibition at 1200 g/ha (Scirpus juncoides [5]) | inhibition at 75 g/ha [6] | inhibition at 75 g/ha (Monochoria vaginalis [7]) | inhibition at 75 g/ha (Scirpus juncoides [8]) | inhibition at 75 g/ha (Digitaria ciliaris) | inhibition at 75 g/ha (Echinochloa crus-galli)

Cc1ccccc1CO[C@@H]1C[C@]2(C(C)C)O[C@@]1(C)C[C@@H]2O [1-24, (1R,2S,4S,5R)-1-isopropyl-4-methyl-5-((2-methylbenzyl)oxy)-7-oxabicyclo[2.2.1]heptan-2-ol]
≥ 80%: pest or weed control at 1200 g/ha [1] | pest or weed control at 1200 g/ha (Scirpus juncoides [2]) | inhibition at 1200 g/ha [3] | inhibition at 1200 g/ha (Monochoria vaginalis [4]) | inhibition at 1200 g/ha (Scirpus juncoides [5]) | inhibition at 75 g/ha [6] | inhibition at 75 g/ha (Monochoria vaginalis [7]) | inhibition at 75 g/ha (Scirpus juncoides [8]) | inhibition at 75 g/ha (Digitaria ciliaris) | inhibition at 75 g/ha (Echinochloa crus-galli)

CC(C)[C@]12C=C[C@](C)(O1)[C@H](OCc1ccccc1)C2 [3-1, (1R,4S,5R)-4-methyl-5-phenylmethoxy-1-isopropyl-7-oxabicyclo[2.2.1]hept-2-ene]
≥ 80%: pest or weed control at 1200 g/ha [1] | pest or weed control at 1200 g/ha (Scirpus juncoides [2]) | inhibition at 1200 g/ha [3] | inhibition at 1200 g/ha (Monochoria vaginalis [4]) | inhibition at 1200 g/ha (Scirpus juncoides [5]) | inhibition at 75 g/ha [6] | inhibition at 75 g/ha (Monochoria vaginalis [7]) | inhibition at 75 g/ha (Scirpus juncoides [8]) | inhibition at 75 g/ha (Digitaria ciliaris) | inhibition at 75 g/ha (Echinochloa crus-galli)

CC(C)[C@]12C[C@@H](OCc3ccsc3)[C@](C)(C[C@@H]1Br)O2 [1-722, (1S,2R,4R,5S)-5-bromo-1-methyl-4-isopropyl-2-(thiophen-3-ylmethoxy)-7-oxabicyclo[2.2.1]heptane]
≥ 80%: pest or weed control at 1200 g/ha [1] | pest or weed control at 1200 g/ha (Scirpus juncoides [2]) | inhibition at 1200 g/ha [3] | inhibition at 1200 g/ha (Monochoria vaginalis [4]) | inhibition at 1200 g/ha (Scirpus juncoides [5]) | inhibition at 75 g/ha [6] | inhibition at 75 g/ha (Monochoria vaginalis [7]) | inhibition at 75 g/ha (Scirpus juncoides [8]) | inhibition at 75 g/ha (Digitaria ciliaris) | inhibition at 75 g/ha (Echinochloa crus-galli)

CC(C)C12CC(OCc3ccccc3F)C(C)(CC1Br)O2 (stereo not drawn) [1-1355, 5-bromo-2-[(2-fluorophenyl)methoxy]-1-methyl-4-isopropyl-7-oxabicyclo[2.2.1]heptane]
≥ 80%: pest or weed control at 1200 g/ha [1] | pest or weed control at 1200 g/ha (Scirpus juncoides [2]) | inhibition at 1200 g/ha [3] | inhibition at 1200 g/ha (Monochoria vaginalis [4]) | inhibition at 1200 g/ha (Scirpus juncoides [5]) | inhibition at 75 g/ha [6] | inhibition at 75 g/ha (Monochoria vaginalis [7]) | inhibition at 75 g/ha (Scirpus juncoides [8]) | inhibition at 75 g/ha (Digitaria ciliaris) | inhibition at 75 g/ha (Echinochloa crus-galli)
